Test results taken from PubChem BioAssay AID328 (DTP/NCI, 2004).
Values joined by “and” are separate entries in the source; they are usually repeats but may differ in a detail not shown here. Equal entries are not always repeated. Toxic doses and inconclusive results are not listed.

Test system: BDF1 mice, P388 leukemia ip, median survival T/C
Experiment: NCI In Vivo Anticancer Drug Screen. Data for tumor model P388 Leukemia (intraperitoneal) in B6D2F1 (BDF1) mice
Conditions: endpoint: median survival time, higher = longer survival
Outline: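 Each value expresses how treatment altered survival: treated-mouse outcome over vehicle-mouse outcome, both groups bearing the transplanted tumour.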

[1] = dose: 50.0 mg/kg/injection, schedule: Q01DX009 (ip), vehicle: Klucel (hydroxypropylcellulose) (HPC)
[2] = dose: 100.0 mg/kg/injection, schedule: Q01DX009 (ip), vehicle: Klucel (hydroxypropylcellulose) (HPC)
[3] = dose: 200.0 mg/kg/injection, schedule: Q01DX009 (ip), vehicle: Klucel (hydroxypropylcellulose) (HPC)
[4] = dose: 6.25 mg/kg/injection, schedule: Q01DX009 (ip), vehicle: saline with Tween-80
[5] = dose: 50.0 mg/kg/injection, schedule: Q04DX003 (ip), vehicle: saline with Tween-80
[6] = dose: 100.0 mg/kg/injection, schedule: Q04DX003 (ip), vehicle: Klucel (hydroxypropylcellulose) (HPC)
[7] = dose: 400.0 mg/kg/injection, schedule: Q01DX009 (ip), vehicle: Klucel (hydroxypropylcellulose) (HPC)
[8] = dose: 400.0 mg/kg/injection, schedule: Q04DX003 (ip), vehicle: Klucel (hydroxypropylcellulose) (HPC)
[9] = dose: 100.0 mg/kg/injection, schedule: Q01DX009 (ip), vehicle: saline with Tween-80
[10] = dose: 200.0 mg/kg/injection, schedule: Q01DX009 (ip), vehicle: saline with Tween-80
[11] = dose: 400.0 mg/kg/injection, schedule: Q01DX009 (ip), vehicle: saline with Tween-80
[12] = dose: 50.0 mg/kg/injection, schedule: Q01DX009 (ip), vehicle: saline with Tween-80

SMILES: O=S1(=O)CCN(C2CCCC2)CC1
- T/C [1]: 104 % of control
- T/C [2]: 121 % of control
- T/C [3]: 111 % of control

SMILES: ClC1=NC(Cl)C(Cl)=N/C1=N\c1ncn[nH]1 (stereo not given)
- T/C [4]: 110 % of control
- T/C (dose: 22.0 mg/kg/injection, schedule: Q04DX003 (ip), vehicle: saline with Tween-80): 113 % of control
- T/C [5]: 118 % of control
- T/C (dose: 75.0 mg/kg/injection, schedule: Q04DX003 (ip), vehicle: saline with Tween-80): 90 % of control

SMILES: COC(=O)CCCCC(=O)OCC#CC#CCOC(=O)CCCCC(=O)OC
- T/C [2]: 104 % of control
- T/C [6]: 104 % of control
- T/C [3]: 104 % of control
- T/C (dose: 200.0 mg/kg/injection, schedule: Q04DX003 (ip), vehicle: Klucel (hydroxypropylcellulose) (HPC)): 104 % of control
- T/C [7]: 109 % of control
- T/C [8]: 100 % of control

SMILES: CC(=O)OC12C3CCCC1CCCC2CCC3 (stereo not given)
- T/C (dose: 100.0 mg/kg/injection, schedule: Q01DX001 (ip), vehicle: Klucel (hydroxypropylcellulose) (HPC)): 100 % of control
- T/C (dose: 200.0 mg/kg/injection, schedule: Q01DX001 (ip), vehicle: Klucel (hydroxypropylcellulose) (HPC)): 100 % of control
- T/C (dose: 400.0 mg/kg/injection, schedule: Q01DX001 (ip), vehicle: Klucel (hydroxypropylcellulose) (HPC)): 100 % of control

SMILES: NS(=O)(=O)c1ccc(NC2OCC(O)C(O)C2O)cc1 (stereo not given)
- T/C [9]: 95 % of control
- T/C [10]: 90 % of control
- T/C [11]: 100 % of control

SMILES: O=C1C(C2OC2c2ccccc2)CCCC1C1OC1c1ccccc1 (stereo not given)
- T/C (dose: 100.0 mg/kg/injection, schedule: Q04DX003 (ip), vehicle: saline sonified): 100 % of control
- T/C [10]: 91 % of control
- T/C (dose: 200.0 mg/kg/injection, schedule: Q04DX003 (ip), vehicle: saline sonified): 95 % of control
- T/C [11]: 87 % of control
- T/C (dose: 400.0 mg/kg/injection, schedule: Q04DX003 (ip), vehicle: saline sonified): 95 % of control

SMILES: CCCCN(CCCC)CCC(=O)c1ccc(OC)c2ccccc12
- T/C [12]: 86 % of control

SMILES: CCCCN(C)C(=S)S[Te](SC(=S)N(C)CCCC)(SC(=S)N(C)CCCC)SC(=S)N(C)CCCC
- T/C (dose: 45.0 mg/kg/injection, schedule: Q01DX010 (ip), vehicle: carboxymethylcellulose (CMC)): 100 % of control
- T/C (dose: 90.0 mg/kg/injection, schedule: Q01DX010 (ip), vehicle: carboxymethylcellulose (CMC)): 105 % of control
- T/C (dose: 180.0 mg/kg/injection, schedule: Q01DX010 (ip), vehicle: carboxymethylcellulose (CMC)): 115 % of control
- T/C (dose: 360.0 mg/kg/injection, schedule: Q01DX010 (ip), vehicle: carboxymethylcellulose (CMC)): 110 % of control

SMILES: CC(Cl)CN(Cc1cc(O)c(CN(CC(C)Cl)CC(C)Cl)cc1O)CC(C)Cl (stereo not given)
- T/C [6]: 118 % of control
- T/C (dose: 264.0 mg/kg/injection, schedule: Q04DX003 (ip), vehicle: Klucel (hydroxypropylcellulose) (HPC)): 91 % of control
- T/C (dose: 264.0 mg/kg/injection, schedule: Q04DX003 (ip), vehicle: saline): 113 % of control
- T/C [8]: 154 % of control
- T/C (dose: 400.0 mg/kg/injection, schedule: Q04DX003 (ip), vehicle: saline): 109 % of control

SMILES: CCCSc1ncnc2nc[nH]c12
- T/C (dose: 31.3 mg/kg/injection, schedule: Q01DX010 (ip), vehicle: saline): 95 % of control and 120 % of control
- T/C (dose: 62.5 mg/kg/injection, schedule: Q01DX010 (ip), vehicle: saline): 100 % of control and 105 % of control
- T/C (dose: 125.0 mg/kg/injection, schedule: Q01DX010 (ip), vehicle: saline): 95 % of control and 100 % of control

SMILES: COC(=O)c1c(C)cc(OC(=O)c2c(C)c(Cl)c(O)c(Cl)c2O)cc1O
- T/C (dose: 1.25 mg/kg/injection, schedule: Q01DX009 (ip), vehicle: Klucel (hydroxypropylcellulose) (HPC)): 91 % of control
- T/C (dose: 2.5 mg/kg/injection, schedule: Q01DX009 (ip), vehicle: Klucel (hydroxypropylcellulose) (HPC)): 114 % of control
- T/C (dose: 5.0 mg/kg/injection, schedule: Q01DX009 (ip), vehicle: Klucel (hydroxypropylcellulose) (HPC)): 101 % of control
- T/C (dose: 10.0 mg/kg/injection, schedule: Q01DX009 (ip), vehicle: Klucel (hydroxypropylcellulose) (HPC)): 108 % of control
- T/C (dose: 20.0 mg/kg/injection, schedule: Q01DX009 (ip), vehicle: Klucel (hydroxypropylcellulose) (HPC)): 97 % of control

SMILES: C=C1C(=O)OC2CC(C)C3C4OC4C(O)C3(C)C(O)C12 (stereo not given)
- T/C (dose: 6.25 mg/kg/injection, schedule: Q01DX009 (ip), vehicle: saline): 100 % of control
- T/C (dose: 9.38 mg/kg/injection, schedule: Q01DX009 (ip), vehicle: saline): 111 % of control
- T/C (dose: 12.5 mg/kg/injection, schedule: Q01DX009 (ip), vehicle: saline): 100 % of control
- T/C (dose: 16.5 mg/kg/injection, schedule: Q01DX009 (ip), vehicle: saline): 101 % of control
- T/C (dose: 18.75 mg/kg/injection, schedule: Q01DX009 (ip), vehicle: saline): 120 % of control
- T/C (dose: 25.0 mg/kg/injection, schedule: Q01DX009 (ip), vehicle: saline): 104 % of control and 108 % of control
- T/C (dose: 37.5 mg/kg/injection, schedule: Q01DX009 (ip), vehicle: saline): 112 % of control
- T/C (dose: 56.25 mg/kg/injection, schedule: Q01DX009 (ip), vehicle: saline): 110 % of control

SMILES: Cc1onc(-c2ccccc2)c1NC(=O)OC(C)c1cccnc1 (stereo not given)
- T/C [12]: 103 % of control
- T/C [9]: 108 % of control
- T/C [10]: 119 % of control

SMILES: CCN(CC)CCCNc1ncnc2onc(-c3ccccc3)c12
- T/C (dose: 50.0 mg/kg/injection, schedule: Q01DX009 (ip), vehicle: other): 107 % of control
- T/C (dose: 100.0 mg/kg/injection, schedule: Q01DX009 (ip), vehicle: other): 105 % of control
- T/C (dose: 200.0 mg/kg/injection, schedule: Q01DX009 (ip), vehicle: other): 96 % of control

SMILES: CC(C)CCOC(=O)C(Br)c1ccccc1 (stereo not given)
- T/C (dose: 44.0 mg/kg/injection, schedule: Q01DX009 (ip), vehicle: saline with Tween-80): 110 % of control
- T/C (dose: 66.0 mg/kg/injection, schedule: Q01DX009 (ip), vehicle: saline with Tween-80): 107 % of control
- T/C (dose: 100.0 mg/kg/injection, schedule: Q04DX003 (ip), vehicle: saline with Tween-80): 108 % of control
- T/C (dose: 150.0 mg/kg/injection, schedule: Q01DX009 (ip), vehicle: saline with Tween-80): 115 % of control
- T/C (dose: 200.0 mg/kg/injection, schedule: Q04DX003 (ip), vehicle: saline with Tween-80): 116 % of control
- T/C (dose: 400.0 mg/kg/injection, schedule: Q04DX003 (ip), vehicle: saline with Tween-80): 104 % of control

SMILES: CN(C)/N=N/c1[nH]ncc1C(N)=O
- T/C [1]: 95 % of control
- T/C [2]: 104 % of control
- T/C (dose: 100.0 mg/kg/injection, schedule: Q04DX003 (ip), vehicle: alcohol): 118 % of control
- T/C (dose: 200.0 mg/kg/injection, schedule: Q04DX003 (ip), vehicle: alcohol): 113 % of control

SMILES: C(=N\Nc1nc2ccccc2s1)/c1ccccc1
- T/C [2]: 95 % of control
- T/C [3]: 109 % of control
- T/C [7]: 90 % of control

SMILES: CC[C@H](CC[C@@H](C)[C@H]1CC[C@H]2[C@@H]3CC=C4C[C@@H](OC(=O)CSC(CC(=O)O)C(=O)O)CC[C@]4(C)[C@H]3CC[C@]12C)C(C)C (stereo not given in full)
- T/C [2]: 109 % of control
- T/C [3]: 104 % of control

SMILES: CC(=O)/C=C/c1ccccc1
- T/C [9]: 91 % of control and 109 % of control
- T/C [10]: 108 % of control and 118 % of control
- T/C [11]: 117 % of control

SMILES: C=CC[NH-].C=CC[NH-].CC(=O)CC(C)=O.CC(=O)CC(C)=O.[Ni+2]
- T/C (dose: 6.25 mg/kg/injection, schedule: Q04DX002 (ip), vehicle: saline): 107 % of control
- T/C (dose: 12.5 mg/kg/injection, schedule: Q04DX002 (ip), vehicle: saline): 100 % of control
- T/C (dose: 25.0 mg/kg/injection, schedule: Q04DX002 (ip), vehicle: saline): 117 % of control

SMILES: Nc1ncc(C(=O)O)c(N)n1
- T/C (dose: 0.75 mg/kg/injection, schedule: Q01DX009 (ip), vehicle: saline with Tween-80): 87 % of control
- T/C (dose: 1.5 mg/kg/injection, schedule: Q01DX009 (ip), vehicle: saline with Tween-80): 104 % of control
- T/C (dose: 3.0 mg/kg/injection, schedule: Q01DX009 (ip), vehicle: saline with Tween-80): 91 % of control
- T/C [4]: 88 % of control
- T/C (dose: 12.5 mg/kg/injection, schedule: Q04DX003 (ip), vehicle: saline with Tween-80): 100 % of control
- T/C (dose: 25.0 mg/kg/injection, schedule: Q01DX009 (ip), vehicle: saline with Tween-80): 111 % of control
- T/C (dose: 25.0 mg/kg/injection, schedule: Q04DX003 (ip), vehicle: saline with Tween-80): 100 % of control
- T/C [5]: 100 % of control
